This note sets out measurements from patent publication US8129371B2, “Thienopyrimidine and pyrazolopyrimidine compounds and their use as mTOR kinase and PI3 kinase inhibitors” (Wyeth LLC, priority 2007, dated 2012).

Read-outs that look alike come from different tables or passages of the source. Where only a bound is given, the exact number is not on record here.

Assay [1] addresses T1, PI3K (Homo sapiens, UniProt P42336).
T1 construct: PI3 Kinase α IC50; other: PI3 Kinase α; other: PI3 Kinase α isoform, fluorescence polarization
As to the kind of experiment: Fluorescence polarization assay for PI3K. The assay is classed as biochemical. Particulars: read-out: PI3 Kinase α IC50. In a few lines: (§1)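 Fluorescence-polarization competition readout: after 30–60 min of PIP2/ATP turnover in 1% DMSO, a stop mix with GST-GRP (70 nM) and red probe (10 nM) was added.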
(In general: In fluorescence polarisation assays a small probe gives low polarisation when free and higher when bound to something large.)

Assay [2] deals with T2, PI3K (Homo sapiens, UniProt P48736).
T2 construct: PI3 Kinase γ IC50; other: PI3 Kinase γ; other: PI3 Kinase γ isoform, fluorescence polarization
T2 sequence (P48736 whole entry, canonical isoform): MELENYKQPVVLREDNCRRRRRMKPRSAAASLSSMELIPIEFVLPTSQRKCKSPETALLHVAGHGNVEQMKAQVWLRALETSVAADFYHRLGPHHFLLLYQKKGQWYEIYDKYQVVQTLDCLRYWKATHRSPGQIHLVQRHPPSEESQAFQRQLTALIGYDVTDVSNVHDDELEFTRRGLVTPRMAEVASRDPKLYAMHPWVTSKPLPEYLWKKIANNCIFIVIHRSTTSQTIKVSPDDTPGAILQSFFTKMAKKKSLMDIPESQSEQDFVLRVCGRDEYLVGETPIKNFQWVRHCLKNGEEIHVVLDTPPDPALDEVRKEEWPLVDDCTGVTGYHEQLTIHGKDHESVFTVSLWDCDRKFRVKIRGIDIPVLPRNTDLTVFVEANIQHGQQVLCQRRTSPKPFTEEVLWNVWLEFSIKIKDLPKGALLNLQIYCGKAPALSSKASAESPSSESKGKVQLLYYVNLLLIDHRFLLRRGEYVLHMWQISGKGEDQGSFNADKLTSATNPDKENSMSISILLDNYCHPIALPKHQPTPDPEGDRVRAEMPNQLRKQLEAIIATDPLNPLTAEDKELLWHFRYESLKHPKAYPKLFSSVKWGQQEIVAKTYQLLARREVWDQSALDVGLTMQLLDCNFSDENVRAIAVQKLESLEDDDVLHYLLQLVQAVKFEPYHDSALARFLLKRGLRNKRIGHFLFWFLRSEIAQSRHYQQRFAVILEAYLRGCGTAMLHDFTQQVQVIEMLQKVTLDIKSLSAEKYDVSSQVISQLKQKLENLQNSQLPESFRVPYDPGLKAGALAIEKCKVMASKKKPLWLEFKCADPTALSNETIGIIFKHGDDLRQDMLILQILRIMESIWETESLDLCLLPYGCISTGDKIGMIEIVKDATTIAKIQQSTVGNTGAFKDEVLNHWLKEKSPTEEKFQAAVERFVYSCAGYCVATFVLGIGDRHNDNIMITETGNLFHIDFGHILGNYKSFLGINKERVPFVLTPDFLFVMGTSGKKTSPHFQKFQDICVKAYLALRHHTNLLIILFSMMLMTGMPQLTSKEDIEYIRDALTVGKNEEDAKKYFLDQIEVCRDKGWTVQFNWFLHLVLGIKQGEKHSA
As to the kind of experiment: Fluorescence polarization assay for PI3K. The assay is classed as biochemical. As to conditions: read-out: PI3 Kinase γ IC50. In a few lines: as §1

For a further assay, the system named is breast line MDA468. The experiment in a line: In vitro cell culture growth assay (MTS), MDA468. Particulars: Homo sapiens, 72 h, MDA468 cells, three days after drug treatment. The format is cell-based. An outline of the steps:
(§2)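 The readout was MTS dye metabolism at 490 nm, taken after 3-day drug exposure that began the day after seeding. Growth was expressed as percent of vehicle-treated wells in the same plate.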

For a further assay, the system named is prostate line LNCap. The experiment in a line: In vitro cell culture growth assay (MTS), LNCap. The assay is classed as cell-based. Particulars: Homo sapiens, LNCaP, 72 h, LNCap cells, three days after drug treatment. An outline of the steps:
as §2

Another assay deals with T3, Human mTOR (FLAG-TOR) (Homo sapiens, UniProt P42345).
T3 construct: FLAG
The experiment in a line: Human mTOR kinase assay with purified enzyme, DELFIA format. The assay is classed as biochemical. An outline of the steps:
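DELFIA readout: Eu-anti-P(T389)-S6K antibody (40 ng/mL, 1 h) on captured His6-S6K from the stopped reaction. Kinase step used purified FLAG-tagged human mTOR with test compound in HEPES (pH 7.4)/MnCl2/DTT buffer, 2 h at room temperature (linear 1–6 h), terminated by EDTA/EGTA.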

Where [3] appears, read: PI3 Kinase α isoform, fluorescence polarization.
[4] abbreviates: PI3 Kinase γ isoform, fluorescence polarization.
Where [5] appears, read: purified human mTOR enzyme, DELFIA format.

T1 sequence (P42336 whole entry, canonical isoform): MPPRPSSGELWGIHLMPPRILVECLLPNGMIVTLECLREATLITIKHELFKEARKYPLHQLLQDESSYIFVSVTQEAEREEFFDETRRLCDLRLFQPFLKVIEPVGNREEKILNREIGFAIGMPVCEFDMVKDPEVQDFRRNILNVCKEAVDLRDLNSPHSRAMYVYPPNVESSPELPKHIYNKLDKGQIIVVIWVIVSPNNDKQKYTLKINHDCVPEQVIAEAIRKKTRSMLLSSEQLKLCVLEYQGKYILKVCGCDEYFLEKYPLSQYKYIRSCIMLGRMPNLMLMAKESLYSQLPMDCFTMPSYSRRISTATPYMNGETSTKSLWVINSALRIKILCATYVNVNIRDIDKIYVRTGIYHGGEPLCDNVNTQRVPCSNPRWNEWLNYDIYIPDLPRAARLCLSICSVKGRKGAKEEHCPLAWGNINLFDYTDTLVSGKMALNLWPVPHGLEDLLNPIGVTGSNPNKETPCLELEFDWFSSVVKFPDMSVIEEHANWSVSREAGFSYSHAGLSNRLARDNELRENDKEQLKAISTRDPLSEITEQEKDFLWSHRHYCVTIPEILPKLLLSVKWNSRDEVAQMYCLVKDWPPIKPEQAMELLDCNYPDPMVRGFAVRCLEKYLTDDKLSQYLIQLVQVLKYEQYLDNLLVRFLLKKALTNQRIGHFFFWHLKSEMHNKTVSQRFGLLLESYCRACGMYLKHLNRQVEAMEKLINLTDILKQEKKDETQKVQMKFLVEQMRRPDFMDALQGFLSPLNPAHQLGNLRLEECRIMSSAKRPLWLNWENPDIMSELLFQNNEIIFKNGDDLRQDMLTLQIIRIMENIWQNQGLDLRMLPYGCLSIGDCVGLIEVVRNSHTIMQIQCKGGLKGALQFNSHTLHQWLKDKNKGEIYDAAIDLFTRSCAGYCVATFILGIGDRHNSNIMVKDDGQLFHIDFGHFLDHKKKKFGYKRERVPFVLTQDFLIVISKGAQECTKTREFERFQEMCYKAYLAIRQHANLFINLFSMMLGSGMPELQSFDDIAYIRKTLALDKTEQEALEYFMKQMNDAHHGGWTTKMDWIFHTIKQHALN

A word on the IC50: it is the point on the concentration scale where inhibition reaches its midpoint. For `CN(C)CCNC(=O)Nc1ccc(-c2nc(N3CC4CCC(C3)O4)c3cnn(C)c3n2)cc1` [Example 58, 1-[2-(dimethylamino)ethyl]-3-{4-[1-methyl-4-(8-oxa-3-azabicyclo[3.2.1]oct-3-yl)-1H-pyrazolo[3,4-d]pyrimidin-6-yl]phenyl}urea], the IC50 at PI3K [1] (PI3 Kinase α) is 307 nM; on PI3K [2] (PI3 Kinase γ) it was 1120 nM; with breast line MDA468, 2800 nM; in the assay on prostate line LNCap, 700 nM; against Human mTOR (FLAG-TOR) it was 99 nM.

For `O=C(Nc1ccc(CCO)cc1)Nc1ccc(-c2nc(N3CC4CCC(C3)O4)c3cnn(CC(F)(F)F)c3n2)cc1` [Example 260, 1-[4-(2-hydroxyethyl)phenyl]-3-{4-[4-(8-oxa-3-azabicyclo[3.2.1]oct-3-yl)-1-(2,2,2-trifluoroethyl)-1H-pyrazolo[3,4-d]pyrimidin-6-yl]phenyl}urea], the IC50 on PI3K [1] (PI3 Kinase α) is 98 nM; on PI3K [2] (PI3 Kinase γ) it was 440 nM; in the assay with breast line MDA468 it was less than 1 nM; with prostate line LNCap, less than 1 nM; at Human mTOR (FLAG-TOR), 0.111 nM.

Consider `O=C(Nc1ccc(-c2nc(N3C4CCC3COC4)c3cnn(CC(F)(F)F)c3n2)cc1)Nc1cccnc1` [Example 268, 1-{4-[4-(3-oxa-8-azabicyclo[3.2.1]oct-8-yl)-1-(2,2,2-trifluoroethyl)-1H-pyrazolo[3,4-d]pyrimidin-6-yl]phenyl}-3-pyridin-3-ylurea], for which the IC50 on PI3K [1] (PI3 Kinase α) was 227 nM; on PI3K [2] (PI3 Kinase γ), 3010 nM; in the assay on breast line MDA468, 3 nM; in the assay on prostate line LNCap, less than 1 nM; against Human mTOR (FLAG-TOR), 0.2 nM.

As for `COC(=O)Nc1ccc(-c2nc(N3CC4CCC(C3)O4)c3cnn(C4CCC(=O)CC4)c3n2)cc1` [Example 136, methyl {4-[4-(8-oxa-3-azabicyclo[3.2.1]oct-3-yl)-1-(4-oxocyclohexyl)-1H-pyrazolo[3,4-d]pyrimidin-6-yl]phenyl}carbamate], the IC50 at PI3K [1] (PI3 Kinase α) was 3900 nM; at PI3K [2] (PI3 Kinase γ) it was greater than 10000 nM; in the assay on breast line MDA468, 1100 nM; in the assay with prostate line LNCap, 40 nM; on Human mTOR (FLAG-TOR), 6.25 nM.

`COC1CCC(n2ncc3c(N4CC5CCC(C4)O5)nc(-c4ccc(NC(=O)Nc5ccc(CO)cc5)cc4)nc32)CC1` (centres unmarked) [Example 308, 1-[4-(hydroxymethyl)phenyl]-3-{4-[1-(4-methoxycyclohexyl)-4-(8-oxa-3-azabicyclo[3.2.1]oct-3-yl)-1H-pyrazolo[3,4-d]pyrimidin-6-yl]phenyl}urea]: the IC50 is 80 nM on PI3K [1] (setting [3]); 2720 nM on PI3K [2] (setting [4]); less than 1 nM with breast line MDA468; less than 1 nM in the assay with prostate line LNCap; 0.08 nM at Human mTOR (FLAG-TOR) (setting [5]).

Regarding `CN1CCN(CCNC(=O)Nc2ccc(-c3nc(N4CC5CCC(C4)O5)c4cnn(C5CCC6(CC5)OCCO6)c4n3)cc2)CC1` [Example 134, 1-{4-[1-(1,4-dioxaspiro[4.5]dec-8-yl)-4-(8-oxa-3-azabicyclo[3.2.1]oct-3-yl)-1H-pyrazolo[3,4-d]pyrimidin-6-yl]phenyl}-3-[2-(4-methylpiperazin-1-yl)ethyl]urea], the IC50 was 2440 nM on PI3K [1] (PI3 Kinase α); greater than 10000 nM on PI3K [2] (PI3 Kinase γ); 4000 nM in the assay on breast line MDA468; 390 nM with prostate line LNCap; 17.5 nM against Human mTOR (FLAG-TOR).

With `CCn1ncc2c(N3CC4CCC(C3)O4)nc(-c3ccc(NC(=O)Nc4cccnc4)cc3)nc21` [Example 47, 1-{4-[1-ethyl-4-(8-oxa-3-azabicyclo[3.2.1]oct-3-yl)-1H-pyrazolo[3,4-d]pyrimidin-6-yl]phenyl}-3-pyridin-3-ylurea], the IC50 on PI3K [1] (PI3 Kinase α) is 160 nM; at PI3K [2] (PI3 Kinase γ), 2720 nM; in the assay with breast line MDA468, 1.2 nM; with prostate line LNCap, less than 0.8 nM; against Human mTOR (FLAG-TOR), 0.11 nM.

For `CC(C)n1ncc2c(N3CC4CCC(C3)O4)nc(-c3ccc(NC(=O)NCCF)cc3)nc21` [Example 141, 1-(2-fluoroethyl)-3-{4-[1-isopropyl-4-(8-oxa-3-azabicyclo[3.2.1]oct-3-yl)-1H-pyrazolo[3,4-d]pyrimidin-6-yl]phenyl}urea], the IC50 at PI3K [1] (PI3 Kinase α) turned out to be 648 nM; on PI3K [2] (PI3 Kinase γ), 6370 nM; in the assay on breast line MDA468, 40 nM; with prostate line LNCap, 1 nM; against Human mTOR (FLAG-TOR) it was 0.155 nM.

As to `CN1CCN(c2ccc(NC(=O)Nc3ccc(-c4nc(N5C6CCC5COC6)c5cnn(CC(F)(F)F)c5n4)cc3)cc2)CC1` [Example 270, 1-[4-(4-methylpiperazin-1-yl)phenyl]-3-{4-[4-(3-oxa-8-azabicyclo[3.2.1]oct-8-yl)-1-(2,2,2-trifluoroethyl)-1H-pyrazolo[3,4-d]pyrimidin-6-yl]phenyl}urea], the IC50 at PI3K [1] (PI3 Kinase α) is 371 nM; on PI3K [2] (PI3 Kinase γ), 9500 nM; with breast line MDA468, 1 nM; in the assay on prostate line LNCap, less than 1 nM; against Human mTOR (FLAG-TOR), 0.52 nM.

With `CCn1ncc2c(N3CC4CCC(C3)O4)nc(-c3ccc(NC(=O)NCCO)cc3)nc21` [Example 44, 1-{4-[1-ethyl-4-(8-oxa-3-azabicyclo[3.2.1]oct-3-yl)-1H-pyrazolo[3,4-d]pyrimidin-6-yl]phenyl}-3-(2-hydroxyethyl)urea], the IC50 was 416 nM at PI3K [1] (PI3 Kinase α); 12000 nM on PI3K [2] (PI3 Kinase γ); 370 nM with breast line MDA468; 220 nM with prostate line LNCap; 0.34 nM at Human mTOR (FLAG-TOR).

Take `CCn1ncc2c(N3CC4CCC(C3)O4)nc(-c3ccc(NC(=O)NC4CC4)cc3)nc21` [Example 43, 1-cyclopropyl-3-{4-[1-ethyl-4-(8-oxa-3-azabicyclo[3.2.1]oct-3-yl)-1H-pyrazolo[3,4-d]pyrimidin-6-yl]phenyl}urea]: the IC50 is 1760 nM on PI3K [1] (PI3 Kinase α); greater than 10000 nM on PI3K [2] (PI3 Kinase γ); 250 nM in the assay on breast line MDA468; 52 nM with prostate line LNCap; 0.4 nM at Human mTOR (FLAG-TOR).

As to `CC(C)(C)n1ncc2c(N3CC4CCC(C3)O4)nc(-c3ccc(NC(=O)Nc4cccnc4)cc3)nc21` [Example 100], the IC50 amounted to 149 nM at PI3K [1] (PI3 Kinase α); 794 nM at PI3K [2] (PI3 Kinase γ); 130 nM in the assay with breast line MDA468; 20 nM in the assay with prostate line LNCap; 0.63 nM against Human mTOR (FLAG-TOR).

For the compound `CCn1ncc2c(N3CC4CCC(C3)O4)nc(-c3cccc(O)c3)nc21` [Example 75, 3-[1-ethyl-4-(8-oxa-3-azabicyclo[3.2.1]oct-3-yl)-1H-pyrazolo[3,4-d]pyrimidin-6-yl]phenol], the IC50 at PI3K [1] (PI3 Kinase α) is 1060 nM; at PI3K [2] (PI3 Kinase γ), greater than 10000 nM; in the assay on breast line MDA468, 1300 nM; in the assay on prostate line LNCap, 350 nM; against Human mTOR (FLAG-TOR), 27 nM.

For `CCn1ncc2c(N3CC4CCC(C3)O4)nc(-c3ccc(NC(=O)NCCCN)cc3)nc21` [Example 176, 1-(3-aminopropyl)-3-{4-[1-ethyl-4-(8-oxa-3-azabicyclo[3.2.1]oct-3-yl)-1H-pyrazolo[3,4-d]pyrimidin-6-yl]phenyl}urea], the IC50 at PI3K [1] (PI3 Kinase α) came to 386 nM; on PI3K [2] (PI3 Kinase γ), 9500 nM; in the assay with breast line MDA468, 28000 nM; with prostate line LNCap, 5500 nM; against Human mTOR (FLAG-TOR) it was 3.55 nM.

With `CN1CCN(Cc2cc3nc(-c4ccc(NC(=O)Nc5cccnc5)cc4)nc(N4CC5CCC(C4)O5)c3s2)CC1` [Example 426, 1-(4-{6-[(4-methylpiperazin-1-yl)methyl]-4-(8-oxa-3-azabicyclo[3.2.1]oct-3-yl)thieno[3,2-d]pyrimidin-2-yl}phenyl)-3-pyridin-3-ylurea], the IC50 at PI3K [1] (setting [3]) came out at 148 nM; at PI3K [2] (setting [4]), 2610 nM; in the assay with breast line MDA468 it was 380 nM; in the assay with prostate line LNCap, 180 nM; at Human mTOR (FLAG-TOR) (setting [5]), 4.7 nM.

On to `CCNC(=O)Nc1ccc(-c2nc(N3CC4CCC(C3)O4)c3cnn(CC)c3n2)cc1` [Example 41, 1-ethyl-3-{4-[1-ethyl-4-(8-oxa-3-azabicyclo[3.2.1]oct-3-yl)-1H-pyrazolo[3,4-d]pyrimidin-6-yl]phenyl}urea], for which the IC50 was 1250 nM at PI3K [1] (PI3 Kinase α); 12000 nM at PI3K [2] (PI3 Kinase γ); 80 nM with breast line MDA468; 16 nM in the assay on prostate line LNCap; 0.47 nM against Human mTOR (FLAG-TOR).

As to `COC(=O)N1CCC(n2ncc3c(N4C5CCC4COC5)nc(-c4ccc(NC(=O)Nc5ccncc5)cc4)nc32)CC1` [Example 362, methyl 4-[4-(3-oxa-8-azabicyclo[3.2.1]oct-8-yl)-6-{4-[(pyridin-4-ylcarbamoyl)amino]phenyl}-1H-pyrazolo[3,4-d]pyrimidin-1-yl]piperidine-1-carboxylate], the IC50 on PI3K [1] (setting [3]) was found to be 1930 nM; at PI3K [2] (setting [4]), 2000 nM; in the assay on breast line MDA468 it was 10 nM; in the assay on prostate line LNCap, 3 nM; against Human mTOR (FLAG-TOR) (setting [5]), 0.26 nM.

As for `CC(C)OC(=O)N1CCC(n2ncc3c(N4CC5CCC(C4)O5)nc(-c4ccc(NC(=O)NCCF)cc4)nc32)CC1` [Example 68, isopropyl 4-[6-(4-{[(2-fluoroethyl)carbamoyl]amino}phenyl)-4-(8-oxa-3-azabicyclo[3.2.1]oct-3-yl)-1H-pyrazolo[3,4-d]pyrimidin-1-yl]piperidine-1-carboxylate], the IC50 is 3150 nM on PI3K [1] (PI3 Kinase α); greater than 10000 nM on PI3K [2] (PI3 Kinase γ); 180 nM in the assay with breast line MDA468; 18 nM in the assay with prostate line LNCap; 0.27 nM on Human mTOR (FLAG-TOR).

`CC(C)(C)n1ncc2c(N3CC4CCC(C3)O4)nc(-c3ccc(NC(=O)Nc4ccccc4)cc3)nc21` [Example 99]: the IC50 on PI3K [1] (PI3 Kinase α) is 130 nM; at PI3K [2] (PI3 Kinase γ) it was 577 nM; in the assay with breast line MDA468 it was 280 nM; with prostate line LNCap, 68 nM; against Human mTOR (FLAG-TOR) it was 1.8 nM.
